Experimental data as given in PubChem BioAssay (NCI).
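GI50: concentration for 50% inhibition of growth. Definition used: TGI = concentration required for complete inhibition of growth.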

Experiments:
Assay in all cases: inhibition of tumour cell growth, NCI panel, 384-well format
SF-539 CNS = test system: SF-539 CNS
TK-10 renal = test system: TK-10 renal
786-0 renal = test system: 786-0 renal
SK-MEL-5 melanoma = test system: SK-MEL-5 melanoma
SK-MEL-28 melanoma = test system: SK-MEL-28 melanoma
MOLT-4 leukemia = test system: MOLT-4 leukemia
HCC-2998 colon = test system: HCC-2998 colon
SF-268 CNS = test system: SF-268 CNS
MALME-3M melanoma = test system: MALME-3M melanoma
SK-MEL-2 melanoma = test system: SK-MEL-2 melanoma
HT29 colon = test system: HT29 colon
NCI-H226 lung = test system: NCI-H226 lung
HOP-62 NSCLC = test system: HOP-62 NSCLC
HCT-116 colon = test system: HCT-116 colon
KM12 colon = test system: KM12 colon
NCI-H23 lung = test system: NCI-H23 lung
SW-620 colon = test system: SW-620 colon
UACC-257 melanoma = test system: UACC-257 melanoma
MDA-MB-435 melanoma = test system: MDA-MB-435 melanoma
OVCAR-5 ovarian = test system: OVCAR-5 ovarian
NCI/ADR-RES ovarian = test system: NCI/ADR-RES ovarian
SK-OV-3 ovarian = test system: SK-OV-3 ovarian
COLO 205 colon = test system: COLO 205 colon
M14 melanoma = test system: M14 melanoma
UO-31 renal = test system: UO-31 renal
DU-145 prostate = test system: DU-145 prostate
UACC-62 melanoma = test system: UACC-62 melanoma
A498 renal = test system: A498 renal
HL-60(TB) leukemia = test system: HL-60(TB) leukemia
OVCAR-4 ovarian = test system: OVCAR-4 ovarian
K-562 leukemia = test system: K-562 leukemia
T-47D breast = test system: T-47D breast
SF-295 CNS = test system: SF-295 CNS
IGROV1 ovarian = test system: IGROV1 ovarian
MCF7 breast = test system: MCF7 breast
ACHN renal = test system: ACHN renal
OVCAR-3 ovarian = test system: OVCAR-3 ovarian
HCT-15 colon = test system: HCT-15 colon
SNB-19 CNS = test system: SNB-19 CNS
MDA-MB-468 breast = test system: MDA-MB-468 breast
RPMI-8226 leukemia = test system: RPMI-8226 leukemia
NCI-H322M lung = test system: NCI-H322M lung
CAKI-1 renal = test system: CAKI-1 renal
LOX IMVI melanoma = test system: LOX IMVI melanoma
U251 glioblastoma = test system: U251 glioblastoma
CCRF-CEM leukemia = test system: CCRF-CEM leukemia
OVCAR-8 ovarian = test system: OVCAR-8 ovarian
RXF 393 renal = test system: RXF 393 renal
NCI-H460 NSCLC = test system: NCI-H460 NSCLC
PC-3 prostate = test system: PC-3 prostate
SN12C renal = test system: SN12C renal
A549 NSCLC = test system: A549 NSCLC
HOP-92 NSCLC = test system: HOP-92 NSCLC
SR leukemia = test system: SR leukemia
NCI-H522 lung = test system: NCI-H522 lung

## CC[C@H](NC(=O)[C@H](C)NC)C(=O)N1C[C@@H](O)C[C@H]1Cc1c(-c2[nH]c3cc(F)ccc3c2C[C@@H]2C[C@H](O)CN2C(=O)[C@H](CC)NC(=O)[C@H](C)NC)[nH]c2cc(F)ccc12
SF-539 CNS
  GI50: 14.6 µM
  TGI: 32.5 µM
TK-10 renal
  GI50: > 100 µM
  TGI: > 100 µM
786-0 renal
  GI50: > 100 µM
  TGI: > 100 µM
SK-MEL-5 melanoma
  GI50: 0.112 µM
  TGI: 0.438 µM
SK-MEL-28 melanoma
  GI50: 86.3 µM
  TGI: > 100 µM
MOLT-4 leukemia
  GI50: 16.4 µM
  TGI: 30.2 µM
HCC-2998 colon
  GI50: 16.6 µM
  TGI: 49.8 µM
SF-268 CNS
  GI50: 28.1 µM
  TGI: 90.6 µM
MALME-3M melanoma
  GI50: 0.0143 µM
  TGI: 0.132 µM
SK-MEL-2 melanoma
  GI50: < 0.01 µM
  TGI: < 0.01 µM
HT29 colon
  GI50: 16.4 µM
  TGI: 39.8 µM
NCI-H226 lung
  GI50: > 100 µM
  TGI: > 100 µM
HOP-62 NSCLC
  GI50: 0.555 µM
  TGI: 8.66 µM
HCT-116 colon
  GI50: 35 µM
  TGI: > 100 µM
KM12 colon
  GI50: 23.8 µM
  TGI: 74.5 µM
NCI-H23 lung
  GI50: 0.0611 µM
  TGI: 13.1 µM
SW-620 colon
  GI50: 57 µM
  TGI: > 100 µM
UACC-257 melanoma
  GI50: 20 µM
  TGI: 69.3 µM
MDA-MB-435 melanoma
  GI50: 0.0982 µM
  TGI: > 100 µM
OVCAR-5 ovarian
  GI50: > 100 µM
  TGI: > 100 µM
NCI/ADR-RES ovarian
  GI50: > 100 µM
  TGI: > 100 µM
SK-OV-3 ovarian
  GI50: < 0.01 µM
  TGI: < 0.01 µM
COLO 205 colon
  GI50: 37 µM
  TGI: > 100 µM
M14 melanoma
  GI50: > 100 µM
  TGI: > 100 µM
UO-31 renal
  GI50: > 100 µM
  TGI: > 100 µM
DU-145 prostate
  GI50: 24.2 µM
  TGI: > 100 µM
UACC-62 melanoma
  GI50: > 100 µM
  TGI: > 100 µM
A498 renal
  GI50: > 100 µM
  TGI: > 100 µM
HL-60(TB) leukemia
  GI50: < 0.01 µM
  TGI: < 0.01 µM
OVCAR-4 ovarian
  GI50: < 0.01 µM
  TGI: < 0.01 µM
K-562 leukemia
  GI50: 21.9 µM
  TGI: 50.7 µM
T-47D breast
  GI50: > 100 µM
  TGI: > 100 µM
SF-295 CNS
  GI50: 82 µM
  TGI: > 100 µM
IGROV1 ovarian
  GI50: > 100 µM
  TGI: > 100 µM
MCF7 breast
  GI50: 15.1 µM
  TGI: 31.4 µM
ACHN renal
  GI50: > 100 µM
  TGI: > 100 µM
OVCAR-3 ovarian
  GI50: 17.9 µM
  TGI: > 100 µM
HCT-15 colon
  GI50: > 100 µM
  TGI: > 100 µM
SNB-19 CNS
  GI50: > 100 µM
  TGI: > 100 µM
MDA-MB-468 breast
  GI50: < 0.01 µM
  TGI: 0.637 µM
RPMI-8226 leukemia
  GI50: 0.102 µM
  TGI: 0.896 µM
NCI-H322M lung
  GI50: > 100 µM
  TGI: > 100 µM
CAKI-1 renal
  GI50: > 100 µM
  TGI: > 100 µM
LOX IMVI melanoma
  GI50: 20.1 µM
  TGI: 35.9 µM
U251 glioblastoma
  GI50: 18 µM
  TGI: 35.7 µM
CCRF-CEM leukemia
  GI50: 0.028 µM
  TGI: 16.8 µM
OVCAR-8 ovarian
  GI50: 17 µM
  TGI: > 100 µM
RXF 393 renal
  GI50: < 0.01 µM
  TGI: 0.0829 µM
NCI-H460 NSCLC
  GI50: 18 µM
  TGI: 38.1 µM
PC-3 prostate
  GI50: 63 µM
  TGI: > 100 µM
SN12C renal
  GI50: > 100 µM
  TGI: > 100 µM
A549 NSCLC
  GI50: > 100 µM
  TGI: > 100 µM
HOP-92 NSCLC
  GI50: 0.785 µM
  TGI: 13.5 µM
SR leukemia
  GI50: 3.4 µM
  TGI: 19.5 µM
NCI-H522 lung
  GI50: 0.0544 µM
  TGI: 12.9 µM
